What all share (experiment): NCI tumour cell line growth inhibition, 48 h
For experiment [1], the system named is ACHN.
Experiment [2] concerns BT-549.
Experiment [3] deals with CAKI-1.
Experiment [4] has as its system EKVX.
Experiment [5] deals with HCT-116.
Experiment [6] relates to HL-60.
Experiment [7] has as its system IGROV-1.
The test system of experiment [8] is LOX IMVI.
Experiment [9] deals with Malme-3M.
The subject of experiment [10] is NCI-H226.
Experiment [11] deals with OVCAR-3.
For experiment [12], the system named is OVCAR-4.
The subject of experiment [13] is RPMI-8226.
For experiment [14], the system named is RXF 393.
For experiment [15], the system named is SF-268.
In experiment [16] the test system is SK-OV-3.
In experiment [17] the test system is SN12C.
Experiment [18] relates to T47D.
The subject of experiment [19] is UO-31.

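96-well plates; 48 h exposure; 5 concentrations. Endpoints by linear interpolation between flanking doses. Not reached: highest tested concentration assigned. GI50 is the concentration that inhibits growth by half.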 Active and inactive are the calls of the source. Rule as the data show it: active = GI50 up to about 1.1 µM and inactive = higher.

In the case of `Cn1c(=S)c2nc(SCCN3C(=O)c4ccccc4C3=O)[nH]c2n(C)c1=O`, the GI50 in experiment [1], in experiment [2], in experiment [3], in experiment [4], in [5] and in experiment [6] was > 100 µM (inactive) each time. Besides, the GI50 in experiment [7] was 30.1 µM (inactive); in experiment [8] it was > 100 µM (inactive); in [9] it was > 100 µM (inactive); in experiment [10], > 100 µM (inactive); in experiment [11], > 100 µM (inactive); in [12] it was > 100 µM (inactive). The GI50 is 25.5 µM (inactive) in [13]; > 100 µM (inactive) in experiment [14]; > 100 µM (inactive) in [15]; > 100 µM (inactive) in experiment [16]; > 100 µM (inactive) in experiment [17]; > 100 µM (inactive) in experiment [18]. For the same compound, in experiment [19], the GI50 was > 100 µM (inactive).
Consider `Cc1ccc2c(C(=O)c3c(C)n(CCN4CCOCC4)c4ccccc34)cccc2c1`, for which the GI50 in [1] is 28.6 µM (inactive); in experiment [2], 14 µM (inactive); in [3] it was 25.1 µM (inactive); in experiment [4], 20.5 µM (inactive); in experiment [5] it was 7.18 µM (inactive); in experiment [6], 2.57 µM (inactive). Moreover, the GI50 in [7] was 19.3 µM (inactive); in experiment [8] it was 12.9 µM (inactive); in experiment [9] it was 5.98 µM (inactive); in [10], < 0.01 µM (active); in experiment [11], 3.54 µM (inactive); in experiment [12] it was 15.4 µM (inactive). For the same compound, the GI50 in experiment [13] is 0.0592 µM (active); in [14], 13.9 µM (inactive); in experiment [15], 11.7 µM (inactive); in [16] it was 12.8 µM (inactive); in [17], 31.3 µM (inactive); in [18], 17.2 µM (inactive). Also, the GI50 in experiment [19] was 23.2 µM (inactive).
With `CC/C(=N\NC(=O)c1cccnc1)c1ccc2c(c1)OCCO2`, the GI50 in experiment [1] was > 100 µM (inactive); in experiment [2] it was > 100 µM (inactive); in [3] it was > 100 µM (inactive); in [4], 64.1 µM (inactive); in [5] it was > 100 µM (inactive); in experiment [6], > 100 µM (inactive). Also, the GI50 in experiment [7] is > 100 µM (inactive); in [8], > 100 µM (inactive); in experiment [9], 28.4 µM (inactive); in experiment [10], > 100 µM (inactive); in experiment [11] it was > 100 µM (inactive); in [12], > 100 µM (inactive). Besides, the GI50 in experiment [13], in experiment [14], in experiment [15], in experiment [16], in experiment [17] and in experiment [18] was > 100 µM (inactive) throughout. Also, the GI50 in experiment [19] is > 100 µM (inactive).
Turning to `CN1CN(c2ccccc2)C2(CCN(Cc3nc4ccccc4s3)CC2)C1=O`, the GI50 in experiment [1] was 19.6 µM (inactive); in experiment [2], 16.1 µM (inactive); in experiment [3] it was 20.1 µM (inactive); in [4] it was 20.9 µM (inactive); in experiment [5], 14.8 µM (inactive); in experiment [6] it was 11.4 µM (inactive). Also, the GI50 in experiment [7] was 15.7 µM (inactive); in [8], 17.3 µM (inactive); in experiment [9], 17.8 µM (inactive); in experiment [10], 16.4 µM (inactive); in experiment [11] it was 15.7 µM (inactive); in experiment [12], 18.6 µM (inactive). The GI50 in [13] is 16 µM (inactive); in experiment [14], 14.6 µM (inactive); in experiment [15], 20.3 µM (inactive); in [16] it was 22.2 µM (inactive); in experiment [17] it was 17.5 µM (inactive); in [18], 16.2 µM (inactive). For the same compound, in [19], the GI50 was 14.6 µM (inactive).
